Experimental data published in ChEMBL document CHEMBL3779821, “On the enthalpic preference of fragment binding” (Medchemcomm, 2016).
pKd: −log10 of the molar value.

Target: Macrophage metalloelastase (Homo sapiens, UniProt P39900)
Test: Binding affinity to MMP12 (unknown origin)

Macrophage metalloelastase, sequence (P39900 whole entry): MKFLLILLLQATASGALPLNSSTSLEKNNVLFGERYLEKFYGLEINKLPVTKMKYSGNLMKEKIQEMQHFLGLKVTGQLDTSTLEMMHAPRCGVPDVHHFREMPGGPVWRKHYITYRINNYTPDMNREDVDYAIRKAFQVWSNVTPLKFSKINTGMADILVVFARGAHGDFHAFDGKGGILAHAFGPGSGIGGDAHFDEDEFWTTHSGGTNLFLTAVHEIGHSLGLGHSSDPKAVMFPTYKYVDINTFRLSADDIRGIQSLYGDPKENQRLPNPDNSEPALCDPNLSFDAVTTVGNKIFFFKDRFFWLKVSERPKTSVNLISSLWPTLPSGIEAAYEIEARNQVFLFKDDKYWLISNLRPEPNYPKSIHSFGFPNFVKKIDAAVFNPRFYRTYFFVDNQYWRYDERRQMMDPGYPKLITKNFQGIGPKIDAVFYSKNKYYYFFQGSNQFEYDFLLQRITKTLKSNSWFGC

| pKd | SMILES |
| --- | --- |
| 7.21 | O=C(CNS(=O)(=O)c1ccccc1)NO |
| 2.21 | CC(=O)NO [ACETOHYDROXAMIC ACID] |
